Experimental data from article PMC9653166 (Journal of medicinal chemistry, 2022).

What was measured:
Sirt1-3 = details: FdL substrate; cited from earlier work
Sirt3 [1] = molecular target: T1, Sirt3 (Homo sapiens, UniProt Q9NTG7); assay: Coupled enzymatic deacetylation assay, Sirt3 with ACS2-acK642 peptide; assay type: biochemical; details: coupled assay, ACS2 peptide, 10 and 100 μM compound
T1 sequence (Q9NTG7 114-380): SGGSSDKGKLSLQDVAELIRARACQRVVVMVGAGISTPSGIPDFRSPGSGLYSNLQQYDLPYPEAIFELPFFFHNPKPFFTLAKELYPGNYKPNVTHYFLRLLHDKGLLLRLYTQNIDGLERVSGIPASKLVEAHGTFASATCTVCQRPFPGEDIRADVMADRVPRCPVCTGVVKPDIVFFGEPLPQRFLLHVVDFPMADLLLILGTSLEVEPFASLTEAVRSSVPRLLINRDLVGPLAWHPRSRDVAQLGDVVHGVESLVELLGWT

Sirt3 [2] = details: cited from earlier work

Row | SMILES | Sirt1-3 activation in the FdL assay (Sirt1-3) | Effect on Sirt3 activity (in words) (Sirt3 [1]) | Sirt3 activation (Sirt3 [2])
1 | CCOC(=O)C1=CN(Cc2ccccc2)C=C(C(=O)OCC)C1c1ccccc1 [Compound 1] | Sirt1-3 activating properties | Sirt3 activation | –
2 | C=CCc1ccc(O)c(-c2ccc(O)c(CC=C)c2)c1 [honokiol] | – | – | weakly activate Sirt3
